Experimental data: US10856562B2, “Flavor composition and edible compositions containing same” (MARS, INCORPORATED, priority 2013, dated 2020)
“Also recorded” adds a separate entry of the source. Square brackets hold non-standard residues; d marks the D form. Ends that are not written are not given here. pGlu = O=C1CC[C@@H](C(=O)O)N1

How the values were obtained:
panelists [1] = test: Degree of Difference (DOD) of test rice from control rice; type: in vivo, human; parameters: Degree of Difference in rice: scale not given here; details: for Degree of Difference in rice: difference from Control; for Degree of Difference in rice / DOD from Control: rice; for DOD from Control: scale 0.0 to 10.0
Description: The present example describes the evaluation of the descriptive profile of pGlu-Cys (identified as “FE-35”), pGlu-Cys-Gly (identified as “FE-36”), pGlu-Cys-Cys (identified as “FE-37”), pGlu-Cys-Val (identified as “FE-38”) and pGlu-Val-Cys (identified as “UE-30”) peptides of the present application. An objective of the study was to understand the efficacy of flavor enhancer compounds FE-35, FE-36, FE-37, FE-38 and UE-30 in increasing concentrations both in solution and in rice, and to determine a Degree of Difference (DOD) score between a control rice sample (which includes NaCl, and no flavor composition peptide) and the test rice samples (with added flavor composition peptides at increasing concentrations).

panelists [2] = test: Return to baseline protocol: salt reference re-tasted at 1 minute intervals; type: in vivo, human; details: for Time needed to return to baseline as the concentration increases: 0.1 to 40.0/50.0 ppb
Procedure: After evaluating the sample for salt and other perceptions (step 3 above), each panelist re-tasted the salt reference (5.0 intensity) at 1 minute intervals until their perception of the saltiness intensity of the reference returned to 5.0. Each panelist recorded salt intensity at each interval and took qualitative notes on other perceptions seen in aftertaste. Attribute Perception Protocol • The panelists evaluated each sample using the following procedure • Descriptive Profiles (flavor and chemical feeling factors) of 5 levels of salt enhancing solutions • Individual data was collected for the flavor and chemical feeling factors of the product in-mouth • Increased Salt Perception Protocol • Each panelist tasted salt 5 reference (0.35% salt solution)—to ground themselves on salt intensity of 5.0. • Each panelist tasted the test sample (0.1 ppb, 0.5 ppb, 1.0 ppb, 10.0 ppb or 40.0/50.0 ppb all in 0.2% NaCl solution: only one per session) • Each panelist then re-tasted the salt 5 reference and rated it for salt intensity as well as any other basic taste, chemical feeling factor, or aromatic perceived. This captured any increased salt perception indicated by the test sample as well as any other perceptions present. • Return to Baseline Protocol • After evaluating the sample for salt & other perceptions, panelists re-tasted the salt 5 reference at 1 minute intervals until their perception of the salt 5 saltiness intensity had returned to 5.0. Each panelist recorded their salt intensity at each interval and took qualitative notes on other perceptions seen in aftertaste. Sample Preparation

| Substance | Degree of Difference in rice (panelists [1]; 1.0 ppb) | Degree of Difference in rice (panelists [1]; 10.0 ppb) | Degree of Difference in rice (panelists [1]; 100.0 ppb) | DOD from Control (panelists [1]; 1.0 ppb (5 ppm)) | DOD from Control (panelists [1]; 10.0 ppb (50 ppm)) | DOD from Control (panelists [1]; 100 ppb (50 ppm)) | Mean time needed to return to baseline (panelists [2]; 0.1 ppb in 0.2% NaCl) [min] | Mean time needed to return to baseline (min.) (panelists [2]; 0.1 ppb in 0.2% NaCl) [min] | Time needed to return to baseline as the concentration increases (panelists [2]) | Mean time needed to return to baseline (panelists [2]; 0.5 ppb in 0.2% NaCl) [min] | Mean time needed to return to baseline (min.) (panelists [2]; 0.5 ppb in 0.2% NaCl) [min] | Mean time needed to return to baseline (panelists [2]; 1.0 ppb in 0.2% NaCl) [min] | Mean time needed to return to baseline (min.) (panelists [2]; 1.0 ppb in 0.2% NaCl) [min] | Mean time needed to return to baseline (panelists [2]; 10.0 ppb in 0.2% NaCl) [min] | Mean time needed to return to baseline (min.) (panelists [2]; 10.0 ppb in 0.2% NaCl) [min] | also measured |
| --- | --- | --- | --- | --- | --- | --- | --- | --- | --- | --- | --- | --- | --- | --- | --- | --- |
| [pGlu]-Cys [FE-35] | 3.8 | 5.0 | 5.0 | 3.8 | 5.0 | 5.0 | – | – | – | – | – | – | – | – | – | Whether consumers notice a difference between the Control and test rice (DOD) (panelists [1]; 1 ppb): Consumers will likely not notice the difference; Whether consumers notice a difference between the Control and test rice (DOD) (panelists [1]; 10 and 100 ppb): Consumers will likely notice a difference |
| [pGlu]-Cys-Cys (cysteine pairing not given here) [FE-37] | 4.0 | 4.5 | 5.0 | 4.0 | 4.5 | 5.0 | – | – | – | – | – | – | – | – | – | Whether consumers notice a difference between the Control and test rice (DOD) (panelists [1]; 1 and 10 ppb): Consumers will may or may not notice a difference; Whether consumers notice a difference between the Control and test rice (DOD) (panelists [1]; 10 ppb): Consumers may or may not notice a difference; Whether consumers notice a difference between the Control and test rice (DOD) (panelists [1]; 100 ppb): Consumers will likely notice a difference |
| [pGlu]-Cys-Gly [FE-36] | 5.0 | 5.0 | 5.5 | 5.0 | 5.0 | 5.5 | – | – | – | – | – | – | – | – | – | Whether consumers notice a difference between the Control and test rice (DOD) (panelists [1]; all concentrations): Consumers will likely notice a difference |
| [pGlu]-Cys-Val [FE-38] | 4.5 | 5.0 | 4.5 | 4.5 | 5.0 | 4.5 | – | – | – | – | – | – | – | – | – | Whether consumers notice a difference between the Control and test rice (DOD) (panelists [1]; 1 and 100 ppb): Consumers may or may not notice a difference; Whether consumers notice a difference between the Control and test rice (DOD) (panelists [1]; 10 ppb): Consumers will likely notice a difference |
| [pGlu]-Val [SE-14] | – | – | – | – | – | – | 4.6 | 4.6 | increases slightly overall; also recorded: slight increase overall | 4.6 | 4.6 | 3.9 | 3.9 | 5.8 | 5.8 | Mean time needed to return to baseline (panelists [2]; 50.0 ppb in 0.2% NaCl): 6.6 min; Mean time needed to return to baseline (min.) (panelists [2]; 50.0 ppb in 0.2% NaCl): 6.6 min |
| [pGlu]-Val-Cys [UE-30] | 4.5 | 5.0 | 5.0 | 4.5 | 5.0 | 5.0 | – | – | – | – | – | – | – | – | – | Whether consumers notice a difference between the Control and test rice (DOD) (panelists [1]; 1 ppb): Consumers may or may not notice a difference; Whether consumers notice a difference between the Control and test rice (DOD) (panelists [1]; 10 and 100 ppb): Consumers will likely notice a difference |
| [pGlu]-Val-Leu [SE-13] | – | – | – | – | – | – | 7.6 | 7.6 | increases notably from 0.1 ppb to 0.5 ppb and from 10.0 ppb to 40.0 ppb; also recorded: does not necessarily increase | 9.5 | 9.5 | 8.7 | 8.7 | 8.6 | 8.6 | Time needed to return to baseline as the concentration increases (panelists [2]; listed as pGlu-Val-Leu): did not necessarily increase; Mean time needed to return to baseline (panelists [2]; 40.0 ppb in 0.2% NaCl): 13.1 min; Mean time needed to return to baseline (min.) (panelists [2]; 40.0 ppb in 0.2% NaCl): 13.1 min; Time needed to return to baseline, comparison of SE-13, SE-14 and SE-17 (panelists [2]; overall): greatest |
| [pGlu]-Val-Val [SE-17] | – | – | – | – | – | – | 3.4 | 3.4 | No definitive trends are seen; also recorded: no definitive trend | 5.6 | 5.6 | 5.0 | 5.0 | 5.0 | 5.0 | Mean time needed to return to baseline (panelists [2]; 50.0 ppb in 0.2% NaCl): 4.1 min; Mean time needed to return to baseline (min.) (panelists [2]; 50.0 ppb in 0.2% NaCl): 4.1 min |
